In patent publication US20070060636A1, “High enantiomeric purity dexanabinol for pharmaceutical compositions” (priority 2002, published 2007):

What was measured:
CB1 mediated activity = assay: mice tetrad assay (suppression of spontaneous activity, hypothermia, catalepsy); type: in vivo; details: 50 mg/kg intravenously, dexanabinol according to the invention
Description: The prepared sample was further tested for suppression of spontaneous activity, hypothermia, and catalepsy measured in the mice tetrad assay, and clearly produced adverse effects. […] Finally, it caused significant catalepsy, with the animals remaining immobile on the beam for almost 30 seconds.
Psychoactive cannabinoids have a variety of pharmacological effects that are evoked through interactions with the CB1 receptors predominantly expressed in the brain. The central nervous system effects that occur after in vivo exposure to HU-210 include euphoria, hypokinesia, hypothermia, anti-nociception, and catalepsy. Hypokinesia, hypothermia, anti-nociception, and catalepsy are the activities that form the basis of the “Tetrad assay” of CB1 mediated activity. […] The threshold for psychomimetic effects of oral THC in humans is in the range of 10-15 mg THC in an adult, i.e from about 0.16 to about 0.25 mg THC/kg body weight for adults of approximately 60 kg (“Cannabis and Cannabinoids, pharmacology, toxicology and therapeutic potential” edited by Grotenhermen and Russo, the Haworth Integrative Healing Press; Chapter 31 pp 345 and 351).
Dexanabinol according to the present invention was tested for suppression of spontaneous activity, hypothermia, and catalepsy in the mice tetrad assay.

[1] = ocular toxicity, topical instillation for five days four times daily; type: in vivo, rabbits; details: dexanabinol in SME, slit lamp
Procedure: Ocular toxicity was tested as follows. Two groups of five animals each received topical instillation of dexanabinol in SME and blank SME for five days four times daily. The animals were examined daily with a slit lamp for ocular discharge, conjunctival hyperemia, corneal fluorescein staining and iris hyperemia. Results were scored on a 0.0-4.0 scale in 0.5 steps.

[2] = 14-day multiple dose pharmacokinetic/toxicity study, rabbit; type: in vivo, rabbits; details: for AUC(0-inf) / Cmax: plasma, 25 mg/kg i.v. daily, final dose Day 14 (NOAEL); for AUC∞ Ratio to Phase I / Cmax Ratio to Phase I / AUC∞ Ratio to Phase II / Cmax Ratio to Phase II: 25 mg/kg Day 14; for AUC∞ Ratio to Phase I / Cmax Ratio to Phase I: vs human 150 mg Phase I; for AUC∞ Ratio to Phase II / Cmax Ratio to Phase II: vs human 150 mg Phase II
Procedure: The pharmacokinetics of dexanabinol of high enantiomeric purity formulated in CREMOPHOR EL®:ethanol as described in Example 4 were investigated in rats, rabbits, and monkeys following intravenous administration of single doses, and 14 and 28 days of repeated dosing. Human pharmacokinetics was studied during Phase I and Phase II clinical studies. Dexanabinol used in the pharmacokinetic studies was formulated as drug concentrates of 50 and 100 mg/ml and diluted with sterile 0.9% NaCl solution prior to intravenous (i.v.) administration to the desired final doses. Determination of dexanabinol concentrations in plasma and brain extracts was carried out using a validated Gas Chromatography-Mass Spectra (GC-MS) assay following solid phase extraction of the drug and derivatization. The limit of quantitation of the assay is 0.1 ng/ml.
Pharmacokinetic parameters were estimated by a non-compartmental method using WinNonlin Professional version 3.2 (Pharsight Corp., Mountain View, Calif.). The maximum plasma concentration (Cmax), when the drug is administered by infusion, is the concentration at the end of infusion. The Cmax following intravenous bolus administration is the value estimated by the software to be the concentration at t=0. The terminal slope (X) was estimated by linear regression through the last time points and used to calculate the terminal half-life (t1/2) from the following equation: t1/2=0.693/λ The area under the curve from time of dosing through the last time point (AUCz) was calculated by the linear trapezoid method. The AUC extrapolated to infinity (AUC∞) was calculated from the following equation: AUC∞=AUCz+Cz/λ where Cz is the concentration at the last time point predicted by the linear regression. AUC∞ was normalized for dose (mg/kg) and presented as AUC∞/Dose. Mean residence time (MRT), when the drug is administered by infusion is described by the following equation: MRT=(AUMC/AUC)−(TI)/2 Mean residence time after i.v. bolus administration is described by the following equation: MRT=(AUMC/AUC) where AUMC is the area under the first moment curve and TI is the length of infusion. Plasma clearance (CL), and the apparent volume of distribution at steady state (Vss) were calculated from the following equations: CL=Dose/AUC∞ Vss=MRT×CL
In 14-day multiple dose pharmacokinetic studies, the NOAEL was 15 mg/kg/day in rats and 25 mg/kg/day in rabbits. In a 28-day study in monkeys the NOAEL was 25 mg/kg/day. Cmax and AUC observed following the last dose at the NOAEL in the multiple dose toxicity studies and the ratios of these values to those observed in the Phase I and II studies for the 150 mg dose are shown in Table 7.

[3] = CREMOPHOR EL:ethanol formulations, dissolution and stability after dilution in saline; type: physicochemical; details: for Stability following dilution in saline, Dilution 1/5 / Stability following dilution in saline, Dilution 1/10 / Stability following dilution in saline, Dilution 1/20: monitored 24 hours
Procedure: Once it was established that a cosolvent formulation made of CREMOPHOR EL® (polyoxyl 35 castor oil) and ethanol is appropriate to dissolve the drug, a matrix of such formulations was prepared at various concentrations (from 30 to 70% w/w of each ingredient) and with increasing amounts of dexanabinol of high enantiomeric purity (20, 50 and 100 mg/ml). The exact composition of these formulations is described in the left hand side of Table 5. The drug cosolvent concentrates were diluted at various ratios in saline and the stability of the drug in the resulting solutions was monitored for 24 hours.

[4] = international clinical trials, safety; type: in vivo, human; details: more than 500 patients exposed, dexanabinol CREMOPHOR EL:ethanol product
Description: A Safety Committee appointed to monitor patient data to ensure patient safety analyzed patients' data after the enrollment and in all cases the safety committee found the drug safe.

[5] = both sexes, iv, rabbit male & female
[6] = 20 mg/ml in 30% CREMOPHOR EL/70% ethanol
[7] = 20 mg/ml in 50% CREMOPHOR EL/50% ethanol
[8] = 20 mg/ml in 70% CREMOPHOR EL/30% ethanol
[9] = 50 mg/ml in 30% CREMOPHOR EL/70% ethanol
[10] = 50 mg/ml in 50% CREMOPHOR EL/50% ethanol
[11] = 50 mg/ml in 70% CREMOPHOR EL/30% ethanol
[12] = 100 mg/ml in 30% CREMOPHOR EL/70% ethanol
[13] = 100 mg/ml in 50% CREMOPHOR EL/50% ethanol
[14] = 100 mg/ml in 70% CREMOPHOR EL/30% ethanol

## CCCCCCC(C)(C)c1cc(O)c2c(c1)OC(C)(C)[C@H]1CC=C(CO)C[C@H]21 [dexanabinol, 1,1-dimethylheptyl-(3S,4S)-7-hydroxy-Δ^6-tetrahydrocannabinol]
CB1 mediated activity
  adverse effect in tetrad assay: no adverse effect
[1]
  conjunctival injection and discharge: mild conjunctival injection and discharge that did not significantly differ from SME-blank treated animals
  corneal staining, corneal opacities and iris hyperemia: did not occur in any of the animals
[2]; [5]
  AUC(0-inf): 67700 ng·h/mL
  Cmax: 132 µg/mL
[2]; iv, rabbit female
  AUC(0-inf): 67900 ng·h/mL
  Cmax: 115 µg/mL
[2]; iv, rabbit male
  AUC(0-inf): 67700 ng·h/mL
  Cmax: 150 µg/mL
[2]; rabbit female
  AUC∞ Ratio to Phase I: 21.2
  Cmax Ratio to Phase I: 23.0
  AUC∞ Ratio to Phase II: 45.8
  Cmax Ratio to Phase II: 58.6
[2]; rabbit male & female
  AUC∞ Ratio to Phase I: 21.1
  Cmax Ratio to Phase I: 26.4
  AUC∞ Ratio to Phase II: 45.6
  Cmax Ratio to Phase II: 67.2
[2]; rabbit male
  AUC∞ Ratio to Phase I: 21.1
  Cmax Ratio to Phase I: 29.9
  AUC∞ Ratio to Phase II: 45.6
  Cmax Ratio to Phase II: 76.0
[2]; rabbit, in vivo, iv, 14-day multiple dose i.v.
  NOAEL at 14 days: 25 mg/kg/day
[3]
  amount of dexanabinol dissolved by CREMOPHOR EL:ethanol cosolvent formulations: at least 100 mg/ml
[3]; [6]
  Stability following dilution in saline, Dilution 1/5: Stable
  Stability following dilution in saline, Dilution 1/10: Stable
  Stability following dilution in saline, Dilution 1/20: Stable
[3]; [7]
  Stability following dilution in saline, Dilution 1/5: Stable
  Stability following dilution in saline, Dilution 1/10: Stable
  Stability following dilution in saline, Dilution 1/20: Stable
[3]; [8]
  Stability following dilution in saline, Dilution 1/5: Stable
  Stability following dilution in saline, Dilution 1/10: Stable
  Stability following dilution in saline, Dilution 1/20: Stable
[3]; [9]
  Stability following dilution in saline, Dilution 1/5: crystals appeared at: appeared at 2 hours
  Stability following dilution in saline, Dilution 1/10: crystals appeared at: 2 h
  Stability following dilution in saline, Dilution 1/20: crystals appeared at: 2.5 h
[3]; [10]
  Stability following dilution in saline, Dilution 1/5: stable at least: least 7 hours
  Stability following dilution in saline, Dilution 1/10: stable at least: least 4 hours
  Stability following dilution in saline, Dilution 1/20: stable at least: ≥ 7 h
[3]; [11]
  Stability following dilution in saline, Dilution 1/5: stable at least: least 7 hours
  Stability following dilution in saline, Dilution 1/10: stable at least: least 7 hours
  Stability following dilution in saline, Dilution 1/20: stable at least: ≥ 7 h
[3]; 50 mg/ml in 70:30 CREMOPHOR EL:ethanol, all ratios from 1:5 to 1:20
  stability after dilution with saline: stable
[3]; [12]
  Stability following dilution in saline, Dilution 1/5: crystals appeared at: 45 min
  Stability following dilution in saline, Dilution 1/10: crystals appeared at: 0.917 h
  Stability following dilution in saline, Dilution 1/20: crystals appeared at: 1.5 h
[3]; [13]
  Stability following dilution in saline, Dilution 1/5: crystals appeared at: 90 min
  Stability following dilution in saline, Dilution 1/10: crystals appeared at: 1.5 h
  Stability following dilution in saline, Dilution 1/20: crystals appeared at: 1.5 h
[3]; [14]
  Stability following dilution in saline, Dilution 1/5: crystals appeared at: appeared at 2 hours
  Stability following dilution in saline, Dilution 1/10: crystals appeared at: 2 h
  Stability following dilution in saline, Dilution 1/20: crystals appeared at: 3.5 h
[4]
  serious adverse reactions: no serious adverse reactions were reported
